Measured values taken from paper PMC1968247 (British Journal of Cancer, 1993).
Where “and” joins values, the source holds several entries; their conditions need not be identical. Equal values may be shown once. Read-outs that look alike come from different tables or passages of the source.

Assays:
[1] = tested on: WEHI-3B; assay: In vitro chemosensitivity, MTT assay; type: cell-based, murine; settings: area under decay curve of the IC50 over the MTT assay
Experimental: (§1) Br. J. Cancer (1993), 67, 441 446 t? […] Bibby Clinical Oncology Unit, University of Bradford, West Yorkshire, BD7 JDP, UK. […] In vivo anti-tumour activity was examined against three transplantable adenocarcinomas of the mouse colon and in vivo bone marrow toxicity was assessed using a spleen colony forming unit assay. The pharmacokinetic behaviour of the drug in vivo and drug stability in vitro was analysed by gas chromatography with electron capture detection. […] Clinical responses to cytotoxic agents have been largely restricted to the haematological malignancies while the majority of human solid tumours have remained refractory to chemotherapy (Marsoni et al., 1987). […] However, their clinical usefulness has been limited by non-selective host toxicity, particularly myelosuppres- sion. The chloroethylnitrosoureas decompose spontaneously in aqueous solution to generate reactive intermediates that are capable of alkylating and carbamoylating nucleophilic targets (Cheng et al., 1972). Alkylation reactions consist of chloroethylations and hydroxyethylations of DNA (Tong et al., 1982). Chloroethylation of 06-guanine with subsequent cross-link formation is considered to be the most important cytotoxic reaction (Lown et al., 1978) while hydroxyethyla- tion reactions are thought to be responsible for their mutagenic and carcinogenic effects (Pelfrene et al., 1976; Swenson et al., 1979). […] In the search for other types of compound that would chloroethylate DNA, a series of 2-haloethylsulphonates was synthesised (Shealy et al., 1983). […] Recently, the NCI has introduced a new disease-orientated screening programme based on the assessment of the in vitro cytotoxicity of a panel of cell lines representing the common clinical forms of human cancers using a colorimetric assay (Boyd, 1989). […] One reason for this discrepancy is that the in vitro tests ignore the potential role played by the pharmacokinetic behaviour and bioavailability of a drug in determining tumour responses in vivo. […] It has been used extensively as part of the pre-clinical evaluation of new anti-cancer agents within the Screening and Pharmacology Group of the EORTC (Bibby et al., 1988b). The feasibility of performing minimal toxicity studies in conjunction with anti-tumour studies has been described (Bibby et al., 1988b). […] Correspondence: A.M. Matthew. Received 6 December 1991; and in revised form 13 October 1992. Br. J. Cancer (1993), 67, 441-446 '?" Macmillan Press Ltd., 1993 442 A.M. MATIHEW et al. ethylating agents with improved therapeutic indices. The assessment of stem cell survival has been recommended to study irreversible cytotoxic bone marrow injury (Schofield, 1986) and this can be performed readily in mice using a spleen colony forming unit assay. […] In vitro activity was assessed against a panel of established murine and human tumour cell lines while in vivo anti-tumour responses were evaluated against an ascitic tumour, MAC 15A, and two solid subcutaneous (sc) tumours, MAC 13 and MAC 26. MAC 13 is relatively nitrosourea-sensitive due to a low level of the repair enzyme 06-alkylguanine-DNA alkyltransferase while MAC 26 is relatively nitrosourea-resistant due to a high repair enzyme level (Lunn et al., 1989). […] Chemosensitivity testing In vitro chemosensitivity was assessed using a modified micro-tetrazolium (MTT) assay (Twenty- man & Luscombe, 1987).

[2] = tested on: MAC 15A; assay: In vitro chemosensitivity, MTT assay; type: cell-based, murine; settings: area under decay curve of the IC50 over the MTT assay
Experimental: as §1

[3] = tested on: MAC 16; assay: In vitro chemosensitivity, MTT assay; type: cell-based, murine; settings: area under decay curve of the IC50 over the MTT assay
Experimental: as §1

[4] = tested on: MAC 26; assay: In vitro chemosensitivity, MTT assay; type: cell-based, murine
Experimental: as §1

[5] = tested on: MAC 26 tumours; settings: for Tumour growth delay: MAC 26; for Survivors: MAC 26 bearers
Experimental: (§2) Br. J. Cancer (1993), 67, 441 446 t? […] Bibby Clinical Oncology Unit, University of Bradford, West Yorkshire, BD7 JDP, UK. […] In vivo anti-tumour activity was examined against three transplantable adenocarcinomas of the mouse colon and in vivo bone marrow toxicity was assessed using a spleen colony forming unit assay. The pharmacokinetic behaviour of the drug in vivo and drug stability in vitro was analysed by gas chromatography with electron capture detection. […] Clinical responses to cytotoxic agents have been largely restricted to the haematological malignancies while the majority of human solid tumours have remained refractory to chemotherapy (Marsoni et al., 1987). […] However, their clinical usefulness has been limited by non-selective host toxicity, particularly myelosuppres- sion. The chloroethylnitrosoureas decompose spontaneously in aqueous solution to generate reactive intermediates that are capable of alkylating and carbamoylating nucleophilic targets (Cheng et al., 1972). Alkylation reactions consist of chloroethylations and hydroxyethylations of DNA (Tong et al., 1982). Chloroethylation of 06-guanine with subsequent cross-link formation is considered to be the most important cytotoxic reaction (Lown et al., 1978) while hydroxyethyla- tion reactions are thought to be responsible for their mutagenic and carcinogenic effects (Pelfrene et al., 1976; Swenson et al., 1979). […] In the search for other types of compound that would chloroethylate DNA, a series of 2-haloethylsulphonates was synthesised (Shealy et al., 1983). […] Recently, the NCI has introduced a new disease-orientated screening programme based on the assessment of the in vitro cytotoxicity of a panel of cell lines representing the common clinical forms of human cancers using a colorimetric assay (Boyd, 1989). […] One reason for this discrepancy is that the in vitro tests ignore the potential role played by the pharmacokinetic behaviour and bioavailability of a drug in determining tumour responses in vivo. […] It has been used extensively as part of the pre-clinical evaluation of new anti-cancer agents within the Screening and Pharmacology Group of the EORTC (Bibby et al., 1988b). The feasibility of performing minimal toxicity studies in conjunction with anti-tumour studies has been described (Bibby et al., 1988b). […] Correspondence: A.M. Matthew. Received 6 December 1991; and in revised form 13 October 1992. Br. J. Cancer (1993), 67, 441-446 '?" Macmillan Press Ltd., 1993 442 A.M. MATIHEW et al. ethylating agents with improved therapeutic indices. The assessment of stem cell survival has been recommended to study irreversible cytotoxic bone marrow injury (Schofield, 1986) and this can be performed readily in mice using a spleen colony forming unit assay. […] In vitro activity was assessed against a panel of established murine and human tumour cell lines while in vivo anti-tumour responses were evaluated against an ascitic tumour, MAC 15A, and two solid subcutaneous (sc) tumours, MAC 13 and MAC 26. MAC 13 is relatively nitrosourea-sensitive due to a low level of the repair enzyme 06-alkylguanine-DNA alkyltransferase while MAC 26 is relatively nitrosourea-resistant due to a high repair enzyme level (Lunn et al., 1989). In vivo bone marrow toxicity and pharmacokinetic studies and in vitro drug stability studies were performed in conjunction with the anti-tumour studies. […] Chlorozotocin was dissolved in 10% dimethylsulphoxide (DMSO)/arachis oil. Drug solutions were prepared at an appropriate concentration for the desired in vivo dose to be administered in 0.1 ml per 10 g body weight by intra- peritoneal (ip) or intravenous (iv) injection and for the desired final concentration in vitro to be achieved upon a 1 in 10 dilution. […] Chemosensitivity testing In vitro chemosensitivity was assessed using a modified micro-tetrazolium (MTT) assay (Twenty- man & Luscombe, 1987).

[6] = tested on: bone marrow; settings: for Survival fraction: 24 h
Experimental: as §2

[7] = tested on: P388 leukaemia; parameters: method as in Shealy et al., 1984; settings: ref Shealy et al., 1984; cited from earlier work
[8] = tested on: HCT-18; assay: In vitro chemosensitivity, MTT assay; type: cell-based, human
Experimental: as §2

[9] = tested on: HRT-18; assay: In vitro chemosensitivity, MTT assay; type: cell-based, human
Experimental: as §2

[10] = tested on: HT-29; assay: In vitro chemosensitivity, MTT assay; type: cell-based, human
Experimental: as §2

[11] = tested on: HCLO; assay: In vitro chemosensitivity, MTT assay; type: cell-based, human; settings: area under decay curve of the IC50 over the MTT assay
Experimental: as §2

[12] = tested on: DLD-1; assay: In vitro chemosensitivity, MTT assay; type: cell-based, human
Experimental: as §2

[13] = tested on: K562; assay: In vitro chemosensitivity, MTT assay; type: cell-based, human; settings: area under decay curve of the IC50 over the MTT assay
Experimental: as §2

[14] = In vitro stability in complete RPMI 1640 tissue culture medium; type: in vitro ADME; settings: complete RPMI 1640 medium, 37 C, initial 10 ug/ml
Experimental: (§3) Br. J. Cancer (1993), 67, 441 446 t? […] Bibby Clinical Oncology Unit, University of Bradford, West Yorkshire, BD7 JDP, UK. […] In vivo anti-tumour activity was examined against three transplantable adenocarcinomas of the mouse colon and in vivo bone marrow toxicity was assessed using a spleen colony forming unit assay. The pharmacokinetic behaviour of the drug in vivo and drug stability in vitro was analysed by gas chromatography with electron capture detection. […] Clinical responses to cytotoxic agents have been largely restricted to the haematological malignancies while the majority of human solid tumours have remained refractory to chemotherapy (Marsoni et al., 1987). […] However, their clinical usefulness has been limited by non-selective host toxicity, particularly myelosuppres- sion. […] The assessment of stem cell survival has been recommended to study irreversible cytotoxic bone marrow injury (Schofield, 1986) and this can be performed readily in mice using a spleen colony forming unit assay. […] In vitro activity was assessed against a panel of established murine and human tumour cell lines while in vivo anti-tumour responses were evaluated against an ascitic tumour, MAC 15A, and two solid subcutaneous (sc) tumours, MAC 13 and MAC 26. […] Chemosensitivity testing In vitro chemosensitivity was assessed using a modified micro-tetrazolium (MTT) assay (Twenty- man & Luscombe, 1987).

[15] = tested on: MAC 13 tumours; assay: Anti-tumour activity against MAC 13 (tumour weight); type: in vivo, NMRI mice
Experimental: as §2

[16] = tested on: MAC 15A ascites tumour; assay: Anti-tumour activity against MAC 15A (median survival time); type: in vivo, NMRI mice
Experimental: as §2

[17] = parameters: method as in Chan & Barrientos, 1988; settings: previously reported; ref Chan & Barrientos, 1988; cited from earlier work
[18] = Pharmacokinetic study, plasma Clomesone by gas chromatography; settings: 50 mg kg-1 ip
Experimental: as §2

[19] = Maximum tolerated dose, full dose range to the point of toxicity; settings: ip, mice
Experimental: as §3, with “sion. The chloroethylnitrosoureas decompose spontaneously in aqueous solution to generate reactive intermediates that are capable of alkylating and carbamoylating nucleophilic targets (Cheng et al., 1972). Alkylation reactions consist of chloroethylations and hydroxyethylations of DNA (Tong et al., 1982). Chloroethylation of 06-guanine with subsequent cross-link formation is considered to be the most important cytotoxic reaction (Lown et al., 1978) while hydroxyethyla- tion reactions are thought to be responsible for their mutagenic and carcinogenic effects (Pelfrene et al., 1976; Swenson et al., 1979).” for “sion.”

[20] = area under decay curve of the IC50 over the MTT assay

CS(=O)(=O)CS(=O)(=O)OCCCl [Clomesone, 2-chloroethyl(methylsulphonyl)methanesulphonate]
c x t (concentration-time product) [1]: 150 fig h ml- ' | c x t (concentration-time product) [2]: 54 fig h ml- ' | c x t (concentration-time product) [3]: 177 fig h ml- ' | IC50 ([4]; MTT, 4 days, one experiment only): 35 igm9l-' | c x t (concentration-time product) [4, 20]: 185 fig h ml- ' | Tumour growth delay ([5]; 25 mg kg-1 ip): 0 days | Tumour growth delay ([5]; 50 mg kg-1 ip): 0.8 days | Tumour growth delay ([5]; 100 mg kg-1 ip): 0.8 days | Survivors ([5]; 25 mg kg-1 ip): 10/10 | Survivors ([5]; 50 mg kg-1 ip): 10/10 | Survivors ([5]; 100 mg kg-1 ip): 10/10 | Survivors ([5]; 150 mg kg-1 ip): 0/10 | Survivors ([5]; 200 mg kg-1 ip): 0/10 | Survival fraction ([6]; 25 mg kg-1 ip): 0.80 | Survival fraction ([6]; 50 mg kg-1 ip): 0.59 | Survival fraction ([6]; 100 mg kg-1 ip, colonies observed vs expected): 0.20 and 0.16 | reduction in colony forming units ([6]; maximum tolerated dose of 100 mg kg-1 ip): 5 fold | Activity against P388 leukaemia in vivo (in words) [7]: highly effective | IC50 ([8]; MTT, 4 days, n = 4): > 100 igm9l-' | c x t (concentration-time product) [8, 20]: > 528 fig h ml- ' | IC50 ([9]; MTT, 4 days, n = 4): > 100 igm9l-' | c x t (concentration-time product) [9, 20]: > 528 fig h ml- ' | IC50 ([10]; MTT, 4 days, n = 4): > 100 igm9l-' | c x t (concentration-time product) [10, 20]: > 528 fig h ml- ' | c x t (concentration-time product) [11]: 146 fig h ml- ' | IC50 ([12]; MTT, 4 days, n = 4): > 100 igm9l-' | c x t (concentration-time product) [12, 20]: > 528 fig h ml- ' | c x t (concentration-time product) [13]: 207 fig h ml- ' | 1st order rate constant (k) of degradation [14]: 0.205 | t1/2 in tissue culture medium [14]: 203 min | % Tumour weight inhibition ([15]; 12.5 mg kg-1 ip): 21.6% | % Tumour weight inhibition ([15]; 12.5 mg kg-1 iv): 45.9% | % Tumour weight inhibition ([15]; 25 mg kg-1 ip): 13.5% | % Tumour weight inhibition ([15]; 25 mg kg-1 iv): 21.6% | % Tumour weight inhibition ([15]; 50 mg kg-1 iv): 47.3% | % Tumour weight inhibition ([15]; 100 mg kg-1 ip, assessed 17 days later): 48.3% | T/C% ([16]; 12.5 mg kg-1 ip): 88% | T/C% ([16]; 12.5 mg kg-1 iv): 100% | T/C% ([16]; 25 mg kg-1 ip): 138% | T/C% ([16]; 25 mg kg-1 iv): 100% | T/C% ([16]; 50 mg kg-1 ip): 163% | T/C% ([16]; 50 mg kg-1 iv): 125% | T/C% ([16]; 100 mg kg-1 ip, median survival time treated/control): 133% and 163% | t1/2 in mouse plasma [17]: 51 min | Time to peak plasma levels [18]: ≤ 2 min | area under the plasma concentration versus time curve, mean value [18]: 6.77 .ghmlh' | areas under the plasma concentration versus time curves, range [18]: 5.70-8.04 lagh ml-' | Peak plasma levels, mean value ([18]; female non-tumour bearing mice, three experiments): 28.0 ggmlh' | mean terminal half-life ([18]; plasma): 8.1 min | terminal half-life, range ([18]; plasma): 4.8 to 10.8 min | Peak plasma levels, range ([18]; three experiments): 18.1-35.9 jigml-' | Maximum tolerated dose [19]: 100 mg kg-'
